Measured values from ChEMBL document CHEMBL1201861, “Genomics of Drug Sensitity in Cancer screening data, Wellcome Trust Sanger Institute”.

How the values were obtained:
Test in all cases: cells
Conditions in all cases: Homo sapiens
[1] = test system: COLO-829; type: functional, cell-based
Description: SANGER: Inhibition of human COLO-829 cell growth in a cell viability assay.

[2] = test system: D-263MG; type: functional, cell-based
Description: SANGER: Inhibition of human D-263MG cell growth in a cell viability assay.

[3] = test system: DJM-1; type: functional, cell-based;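 also: growth inhibition of human DJM-1 cells, read out by a cell viability assay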
Description: SANGER: Inhibition of human DJM-1 cell growth in a cell viability assay.

[4] = test system: EKVX; type: functional, cell-based;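 also: growth inhibition of human EKVX cells, read out with a cell viability assay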
Description: SANGER: Inhibition of human EKVX cell growth in a cell viability assay.

[5] = test system: ES7; type: functional, cell-based;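 also: growth inhibition of cultured human ES7 cells, read out as cell viability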
Description: SANGER: Inhibition of human ES7 cell growth in a cell viability assay.

[6] = test system: EW-18; type: functional, cell-based;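 also: growth inhibition of EW-18 cells, read out by a cell viability assay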
Description: SANGER: Inhibition of human EW-18 cell growth in a cell viability assay.

[7] = test system: GCIY; type: functional, cell-based;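 also: growth inhibition of the human GCIY cell line, read out by a cell viability assay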
Description: SANGER: Inhibition of human GCIY cell growth in a cell viability assay.

[8] = test system: GOTO; type: functional, cell-based;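 also: growth inhibition of GOTO cells, read out by a cell viability assay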
Description: SANGER: Inhibition of human GOTO cell growth in a cell viability assay.

[9] = test system: HAL-01; type: functional, cell-based;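 also: growth inhibition of human HAL-01 cells, read out with a cell viability assay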
Description: SANGER: Inhibition of human HAL-01 cell growth in a cell viability assay.

[10] = test system: HT; type: functional, cell-based
Description: SANGER: Inhibition of human HT cell growth in a cell viability assay.

[11] = test system: IST-MEL1; type: functional, cell-based;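 also: growth inhibition of the cell line, read out with a cell viability assay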
Description: SANGER: Inhibition of human IST-MEL1 cell growth in a cell viability assay.

[12] = test system: IST-SL1; type: functional, cell-based;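 also: growth inhibition of human IST-SL1 cells, read out with a cell viability assay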
Description: SANGER: Inhibition of human IST-SL1 cell growth in a cell viability assay.

[13] = test system: JVM-3; type: functional, cell-based;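 also: growth inhibition of human JVM-3 cells, read out with a cell viability assay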
Description: SANGER: Inhibition of human JVM-3 cell growth in a cell viability assay.

[14] = test system: K562; type: functional, cell-based
Description: SANGER: Inhibition of human K-562 cell growth in a cell viability assay.

[15] = test system: KG-1; type: functional, cell-based;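 also: growth inhibition of KG-1 cells, read out by a cell viability assay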
Description: SANGER: Inhibition of human KG-1 cell growth in a cell viability assay.

[16] = test system: KM-H2; type: functional, cell-based;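 also: growth inhibition of KM-H2 cells, read out by a cell viability assay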
Description: SANGER: Inhibition of human KM-H2 cell growth in a cell viability assay.

[17] = test system: KP-N-YS; type: functional, cell-based;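 also: cell viability assay measuring inhibition of cell line growth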
Description: SANGER: Inhibition of human KP-N-YS cell growth in a cell viability assay.

[18] = test system: KS-1; type: functional, cell-based;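 also: growth inhibition of KS-1 cells, read out with a cell viability assay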
Description: SANGER: Inhibition of human KS-1 cell growth in a cell viability assay.

[19] = test system: KU812 cell line; type: functional, cell-based;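 also: growth inhibition of KU812 cells, read out with a cell viability assay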
Description: SANGER: Inhibition of human KU812 cell growth in a cell viability assay.

[20] = test system: LB771-HNC; type: functional, cell-based;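 also: growth inhibition of LB771-HNC human cells, read out with a cell viability assay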
Description: SANGER: Inhibition of human LB771-HNC cell growth in a cell viability assay.

[21] = test system: LB831-BLC; type: functional, cell-based;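 also: growth inhibition of LB831-BLC cells, read out with a cell viability assay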
Description: SANGER: Inhibition of human LB831-BLC cell growth in a cell viability assay.

[22] = test system: LS-411N; type: functional, cell-based
[23] = test system: LXF-289 cell line; type: functional, cell-based
Description: SANGER: Inhibition of human LXF-289 cell growth in a cell viability assay.

[24] = test system: MHH-NB-11; type: functional, cell-based;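 also: growth inhibition of human MHH-NB-11 cells, read out by a cell viability assay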
Description: SANGER: Inhibition of human MHH-NB-11 cell growth in a cell viability assay.

[25] = test system: MMAC-SF; type: functional, cell-based;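 also: growth inhibition of human MMAC-SF cells, read out with a cell viability assay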
Description: SANGER: Inhibition of human MMAC-SF cell growth in a cell viability assay.

[26] = test system: MOLT-16; type: functional, cell-based;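 also: growth inhibition of human MOLT-16 cells, read out with a cell viability assay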
Description: SANGER: Inhibition of human MOLT-16 cell growth in a cell viability assay.

[27] = test system: MS-1; type: functional, cell-based;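 also: growth inhibition of MS-1 cells, read out by cell viability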
Description: SANGER: Inhibition of human MS-1 cell growth in a cell viability assay.

[28] = test system: MZ2-MEL; type: functional, cell-based;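 also: growth inhibition of MZ2-MEL cells read out with a cell viability assay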
Description: SANGER: Inhibition of human MZ2-MEL cell growth in a cell viability assay.

[29] = test system: NB6; type: functional, cell-based;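 also: growth inhibition of NB6 cells, read out by a cell viability assay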
Description: SANGER: Inhibition of human NB6 cell growth in a cell viability assay.

[30] = test system: NB69; type: functional, cell-based;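 also: growth inhibition of NB69 cells, determined by a cell viability assay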
Description: SANGER: Inhibition of human NB69 cell growth in a cell viability assay.

[31] = test system: NCI-H1092; type: functional, cell-based;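 also: cell growth inhibition measured with a cell viability assay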
Description: SANGER: Inhibition of human NCI-H1092 cell growth in a cell viability assay.

[32] = test system: NCI-H1155; type: functional, cell-based;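 also: cell growth inhibition measured by a viability assay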
Description: SANGER: Inhibition of human NCI-H1155 cell growth in a cell viability assay.

[33] = test system: NCI-H1838; type: functional, cell-based;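 also: growth inhibition of NCI-H1838 cells, determined with a cell viability readout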
Description: SANGER: Inhibition of human NCI-H1838 cell growth in a cell viability assay.

[34] = test system: NCI-H209; type: functional, cell-based;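 also: growth inhibition of human NCI-H209 cells, measured by a cell viability assay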
Description: SANGER: Inhibition of human NCI-H209 cell growth in a cell viability assay.

[35] = test system: NCI-H2126; type: functional, cell-based;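 also: growth inhibition of the cancer cell line, determined with a cell viability readout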
Description: SANGER: Inhibition of human NCI-H2126 cell growth in a cell viability assay.

[36] = test system: NCI-H23; type: functional, cell-based;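 also: cell viability assay measuring growth inhibition of NCI-H23 cells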
Description: SANGER: Inhibition of human NCI-H23 cell growth in a cell viability assay.

[37] = test system: NCI-H510A; type: functional, cell-based;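 also: growth inhibition of NCI-H510A cells, read out with a cell viability assay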
Description: SANGER: Inhibition of human NCI-H510A cell growth in a cell viability assay.

[38] = test system: NCI-H526; type: functional, cell-based;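 also: growth inhibition of the human NCI-H526 cell line, measured by a cell viability assay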
Description: SANGER: Inhibition of human NCI-H526 cell growth in a cell viability assay.

[39] = test system: NH-12; type: functional, cell-based;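 also: growth inhibition of NH-12 cells, read out with a cell viability assay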
Description: SANGER: Inhibition of human NH-12 cell growth in a cell viability assay.

[40] = test system: NKM-1; type: functional, cell-based;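 also: growth inhibition of NKM-1 cells, read out with a cell viability assay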
Description: SANGER: Inhibition of human NKM-1 cell growth in a cell viability assay.

[41] = test system: NOS-1; type: functional, cell-based;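 also: growth inhibition of the human NOS-1 cell line, read out with a cell viability assay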
Description: SANGER: Inhibition of human NOS-1 cell growth in a cell viability assay.

[42] = test system: P30-OHK; type: functional, cell-based;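 also: growth inhibition of the P30-OHK cell line, read out with a cell viability assay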
Description: SANGER: Inhibition of human P30-OHK cell growth in a cell viability assay.

[43] = test system: PSN1; type: functional, cell-based;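 also: suppression of growth of human PSN1 cells, read out by a cell viability assay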
Description: SANGER: Inhibition of human PSN1 cell growth in a cell viability assay.

[44] = test system: RCC10RGB; type: functional, cell-based;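 also: growth inhibition of human RCC10RGB cells, read out by a cell viability assay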
Description: SANGER: Inhibition of human RCC10RGB cell growth in a cell viability assay.

[45] = test system: RPMI-8226; type: functional, cell-based
Description: SANGER: Inhibition of human RPMI-8226 cell growth in a cell viability assay.

[46] = test system: Ramos-2G6-4C10; type: functional, cell-based;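 also: growth inhibition of the cell line, measured by a cell viability read-out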
Description: SANGER: Inhibition of human Ramos-2G6-4C10 cell growth in a cell viability assay.

[47] = test system: SCC-15; type: functional, cell-based;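 also: growth inhibition of SCC-15 cells, read out with a cell viability assay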
Description: SANGER: Inhibition of human SCC-15 cell growth in a cell viability assay.

[48] = test system: SCH; type: functional, cell-based;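 also: growth inhibition of human SCH cells, read out in a cell viability assay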
Description: SANGER: Inhibition of human SCH cell growth in a cell viability assay.

[49] = test system: SH-4; type: functional, cell-based;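 also: growth inhibition of SH-4 cells, read out with a cell viability assay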
Description: SANGER: Inhibition of human SH-4 cell growth in a cell viability assay.

[50] = test system: SK-MEL-2; type: functional, cell-based;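 also: growth inhibition of human SK-MEL-2 cells measured with a cell viability assay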
Description: SANGER: Inhibition of human SK-MEL-2 cell growth in a cell viability assay.

[51] = test system: SK-NEP-1; type: functional, cell-based;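 also: growth inhibition of human SK-NEP-1 cells, read out by a cell viability assay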
Description: SANGER: Inhibition of human SK-NEP-1 cell growth in a cell viability assay.

[52] = test system: SW684; type: functional, cell-based;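 also: growth inhibition of human SW684 cells, measured by a cell viability assay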
Description: SANGER: Inhibition of human SW684 cell growth in a cell viability assay.

[53] = test system: SW872; type: functional, cell-based;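 also: growth inhibition of SW872 cells, read out by a viability assay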
Description: SANGER: Inhibition of human SW872 cell growth in a cell viability assay.

[54] = test system: TE-1; type: functional, cell-based;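 also: growth inhibition of the human TE-1 cell line, read out with a cell viability assay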
Description: SANGER: Inhibition of human TE-1 cell growth in a cell viability assay.

[55] = test system: 697; type: functional, cell-based
Description: SANGER: Inhibition of human 697 cell growth in a cell viability assay.

[56] = test system: 8-MG-BA; type: functional, cell-based;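 also: growth inhibition of 8-MG-BA cells, read out with a cell viability assay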
Description: SANGER: Inhibition of human 8-MG-BA cell growth in a cell viability assay.

[57] = test system: ACN; type: functional, cell-based;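 also: growth inhibition of the human ACN cell line, read out via cell viability testing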
Description: SANGER: Inhibition of human ACN cell growth in a cell viability assay.

[58] = test system: BB65-RCC; type: functional, cell-based;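 also: growth inhibition of the cell line, measured with a cell viability assay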
Description: SANGER: Inhibition of human BB65-RCC cell growth in a cell viability assay.

[59] = test system: BE-13; type: functional, cell-based
Description: SANGER: Inhibition of human BE-13 cell growth in a cell viability assay.

[60] = test system: BV-173; type: functional, cell-based
Description: SANGER: Inhibition of human BV-173 cell growth in a cell viability assay.

[61] = test system: TE-5; type: functional, cell-based
Description: SANGER: Inhibition of human TE-5 cell growth in a cell viability assay.

[62] = test system: U-87 MG; type: functional, cell-based, U-87MG ATCC
Description: SANGER: Inhibition of human U-87-MG cell growth in a cell viability assay.

[63] = test system: COLO-684; type: functional, cell-based
Description: SANGER: Inhibition of human COLO-684 cell growth in a cell viability assay.

## Cc1ccc(NC(=O)c2cccc(C(C)(C)C#N)c2)cc1Nc1ccc2ncn(C)c(=O)c2c1
[1]
  IC50: 25.6 nM
[2]
  IC50: > 4000 nM
[3]
  IC50: > 4000 nM
[4]
  IC50: > 4000 nM
[5]
  IC50: > 4000 nM
[6]
  IC50: > 4000 nM
[7]
  IC50: > 4000 nM
[8]
  IC50: > 4000 nM
[9]
  IC50: > 4000 nM
[10]
  IC50: > 4000 nM
[11]
  IC50: 204 nM
[12]
  IC50: > 4000 nM
[13]
  IC50: > 4000 nM
[14]
  IC50: 667 nM
[15]
  IC50: 3810 nM
[16]
  IC50: > 4000 nM
[17]
  IC50: > 4000 nM
[18]
  IC50: 393 nM
[19]
  IC50: > 4000 nM
[20]
  IC50: > 4000 nM
[21]
  IC50: > 4000 nM
[22]
  IC50: 91.6 nM
[23]
  IC50: > 4000 nM
[24]
  IC50: > 4000 nM
[25]
  IC50: 40.1 nM
[26]
  IC50: > 4000 nM
[27]
  IC50: > 4000 nM
[28]
  IC50: 794 nM
[29]
  IC50: > 4000 nM
[30]
  IC50: 191 nM
[31]
  IC50: > 4000 nM
[32]
  IC50: > 4000 nM
[33]
  IC50: > 4000 nM
[34]
  IC50: > 4000 nM
[35]
  IC50: > 4000 nM
[36]
  IC50: > 4000 nM
[37]
  IC50: > 4000 nM
[38]
  IC50: > 4000 nM
[39]
  IC50: > 4000 nM
[40]
  IC50: 735 nM
[41]
  IC50: 92.7 nM
[42]
  IC50: > 4000 nM
[43]
  IC50: 27.4 nM
[44]
  IC50: > 4000 nM
[45]
  IC50: 2470 nM
[46]
  IC50: > 4000 nM
[47]
  IC50: > 4000 nM
[48]
  IC50: > 4000 nM
[49]
  IC50: < 15.6 nM
[50]
  IC50: 3220 nM
[51]
  IC50: 472 nM
[52]
  IC50: > 4000 nM
[53]
  IC50: 96.5 nM
[54]
  IC50: > 4000 nM
[55]
  IC50: 364 nM
[56]
  IC50: > 4000 nM
[57]
  IC50: < 15.6 nM
[58]
  IC50: > 4000 nM
[59]
  IC50: 806 nM
[60]
  IC50: 692 nM
[61]
  IC50: > 4000 nM
[62]
  IC50: > 4000 nM
[63]
  IC50: > 4000 nM

## CCn1c(-c2nonc2N)nc2cnc(Oc3cccc(NC(=O)c4ccc(OCCN5CCOCC5)cc4)c3)cc21 [GSK-269962A]
[1]
  IC50: > 2500 nM
[2]
  IC50: 85.1 nM
[3]
  IC50: > 2500 nM
[4]
  IC50: > 2500 nM
[5]
  IC50: > 2500 nM
[6]
  IC50: > 2500 nM
[7]
  IC50: > 2500 nM
[8]
  IC50: > 2500 nM
[9]
  IC50: > 2500 nM
[10]
  IC50: > 2500 nM
[11]
  IC50: > 2500 nM
[12]
  IC50: 2170 nM
[13]
  IC50: > 2500 nM
[14]
  IC50: > 2500 nM
[15]
  IC50: > 2500 nM
[16]
  IC50: > 2500 nM
[17]
  IC50: > 2500 nM
[18]
  IC50: 4.6 nM
[19]
  IC50: > 2500 nM
[20]
  IC50: > 2500 nM
[21]
  IC50: > 2500 nM
[22]
  IC50: > 2500 nM
[23]
  IC50: > 2500 nM
[24]
  IC50: 66.9 nM
[25]
  IC50: > 2500 nM
[26]
  IC50: > 2500 nM
[27]
  IC50: > 2500 nM
[28]
  IC50: > 2500 nM
[29]
  IC50: 591 nM
[30]
  IC50: > 2500 nM
[31]
  IC50: > 2500 nM
[32]
  IC50: > 2500 nM
[33]
  IC50: > 2500 nM
[34]
  IC50: > 2500 nM
[35]
  IC50: > 2500 nM
[36]
  IC50: > 2500 nM
[37]
  IC50: > 2500 nM
[38]
  IC50: > 2500 nM
[39]
  IC50: > 2500 nM
[40]
  IC50: > 2500 nM
[41]
  IC50: > 2500 nM
[42]
  IC50: > 2500 nM
[43]
  IC50: > 2500 nM
[44]
  IC50: > 2500 nM
[45]
  IC50: > 2500 nM
[46]
  IC50: 1360 nM
[48]
  IC50: > 2500 nM
[49]
  IC50: > 2500 nM
[50]
  IC50: > 2500 nM
[51]
  IC50: > 2500 nM
[52]
  IC50: > 2500 nM
[53]
  IC50: 887 nM
[54]
  IC50: > 2500 nM
[55]
  IC50: 299 nM
[56]
  IC50: > 2500 nM
[57]
  IC50: > 2500 nM
[58]
  IC50: > 2500 nM
[59]
  IC50: 141 nM
[60]
  IC50: > 2500 nM
[61]
  IC50: > 2500 nM
[62]
  IC50: > 2500 nM
[63]
  IC50: > 2500 nM
